From paper PMC11288129, “Diversely evolved xibalbin variants from remipede venom inhibit potassium channels and activate PKA-II and Erk1/2 signaling” (BMC Biology, 2024)
Positions of bridges follow the written chain, without caps; N, C: chain ends. No end group written: not given here.

Test system: HMEC-1 human microvascular endothelial cells
Experiment: Proliferation of HMEC-1 cells (crystal violet)
Format: cell-based
Details: 25 µg/ml
Procedure: We initially determined the cytotoxic effects of xibalbins on primary sensory neurons from adult male rats cultured in vitro [2]. […] We exposed overnight cultures of dissociated rat dorsal root ganglions (DRGs) to xibalbins for 5 and 30 min. Subsequently, all cells were fixed and immunocytochemically stained for the neuronal marker UCHL1 to identify neurons. The entire culture was digitally scanned using high content imaging (HCI) microscopy, and cell numbers, UCHL1 staining per cell, and cell size was analyzed. No loss of neurons was induced by either of the tested xibalbins, even at the highest concentration of 0.8 µg/µL (Additional File 3: Figure S2). […] We further investigated the potential toxicity of xibalbins in monocyte/macrophage-like cells (RAW264.7) and human microvascular endothelial cells (HMEC); see Additional File 5: Figure S4 The viability of RAW264.7 cells was detected using a formazan-based assay, while the proliferation of HMECs was assessed by measuring the number of crystal violet-stained cells.
Supplementary file 12915_2024_1955_MOESM5_ESM.jpg: Additional file 5: Figure S4. Effects of xibalbins on cytotoxicity in RAW264.7 macrophages and adhesion of leukocytes onto the vascular endothelium. […] Cells were incubated with WST-8 and the formed formazan was detected by absorbance measurements. […] The amount of DNA-bound crystal violet was detected by absorbance measurements. […]

Sequence: KRSCIRRFGRCDHRPNDCCYNSSCRCNLWGSNCRCQRMGLFQKWGK (disulfide 4-19, 11-24, 18-35, 26-33) [xib13]
- Prolif. HMEC-1: 91.3
